# Assay results from patent publication EP0416740A2, “Novel compounds with renin-inhibiting activity” (Beecham Group p.l.c., priority 1989, dated 1991).
# Where a name gives a salt, the structure may show the parent alone.
# Target: T1, human renin (Homo sapiens, UniProt P00797)
# T1 construct: from tissue; host or cells: human plasma from blood of healthy volunteers
# T1 sequence (P00797 67-406): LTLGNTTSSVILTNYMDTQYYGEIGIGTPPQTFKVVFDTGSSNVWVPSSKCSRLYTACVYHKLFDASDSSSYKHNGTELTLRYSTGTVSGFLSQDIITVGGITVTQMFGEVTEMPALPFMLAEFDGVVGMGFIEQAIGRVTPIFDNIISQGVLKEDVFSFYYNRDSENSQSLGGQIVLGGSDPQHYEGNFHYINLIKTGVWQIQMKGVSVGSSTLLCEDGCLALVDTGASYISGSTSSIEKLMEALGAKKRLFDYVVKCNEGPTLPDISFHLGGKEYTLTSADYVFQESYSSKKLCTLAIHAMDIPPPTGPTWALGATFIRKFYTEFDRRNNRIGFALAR
# Experiment: biochemical
# Conditions: not given
# Procedure: In vitro human renin inhibition
# Renin inhibitory activity was estimated as the percentage change in renin activity in human plasma in the presence and absence of compound. The source of plasma was blood taken from healthy volunteers. Renin activity was defined by the difference in angiotensin I levels between two halves of a sample, one incubated at 37^o and the other at 4^o for 2 h. Angiotensin I levels were measured using a ¹²⁵I- angiotensin I radioimmunoassay kit (NEN/Dupont, Stevenage). Results were calculated as the mean of at least two, duplicate determinations and IC₅₀ values were calculated by linear regression analysis of at least three concentrations of compound.
row,Structure (SMILES),IC50
1,"CC(C)CNC(=O)C[C@H](O)[C@H](CC1CCCCC1)NC(=O)[C@H](CC(C)C)NC(=O)[C@H](Cc1ccccc1)NC(=O)CC1COc2ccc[n+]([O-])c21 (stereo partly drawn) [Example E2, 2,3-Dihydro-4-oxofuro[3,2-]pyridine-3-acetyl-Phe-Leu-ACHPA isobutylamide]",0.021 µM

# Same assay, conditions: renin activity in human plasma; angiotensin I difference between halves incubated at 37° and 4° for 2 h; linear regression of at least three concentrations; read-out: IC₅₀
row,Structure (SMILES),IC50
1,"CC(C)C[C@H](NC(=O)[C@H](Cc1ccccc1)NC(=O)CCN1C(=O)COc2cccnc21)C(=O)N[C@@H](CC1CCCCC1)[C@@H](O)CC(=O)NCCCn1ccnc1 [Example E3, 2,3-Dihydro-3-oxo-4H-pyrido[3,2-b]-1,4-oxazine-4-propanoyl-Phe-Leu-ACHPA 3-(1-imidazolyl)propylamide .0.5(CHCl₃)]",0.026 µM
2,"CC(C)C[C@H](NC(=O)[C@H](Cc1ccccc1)NC(=O)CCN1C(=O)CSc2ccncc21)C(=O)N[C@@H](CC1CCCCC1)[C@@H](O)CC(=O)NCCCn1ccnc1 [Example E4, 2,3-Dihydro-3-oxo-4H-pyrido[4,3-b]-1,4-thiazine-4-propanoyl-Phe-Leu-ACHPA 3-(1-imidazolyl)propylamide]",0.004 µM
3,"CC(C)C[C@H](NC(=O)[C@H](Cc1ccccc1)NC(=O)CCN1C(=O)CS(=O)(=O)c2ncccc21)C(=O)N[C@@H](CC1CCCCC1)[C@@H](O)CC(=O)NCCCn1ccnc1 [Example E11, 2,3-Dihydro-1,1,3-trioxo-4H-pyrido[2,3-b]-1,4-thiazine-4-propanoyl-Phe-Leu-ACHPA 3-(1-imidazolyl)propylamide .HCl.1.5H₂O]",0.012 µM
4,"CC(C)C[C@H](NC(=O)[C@H](Cc1ccccc1)NC(=O)CCCN1Cc2ccncc2C1=O)C(=O)N[C@@H](CC1CCCCC1)[C@@H](O)CC(=O)NCCCn1ccnc1 [Example E14, 6,7-Dihydro-5H-7-oxo-pyrrolo[3,4-c]pyridine-6-butanoyl-Phe-Leu-ACHPA 3-(1-imidazolyl)propylamide.2HCl]",0.014 µM
5,"CC(C)C[C@H](NC(=O)[C@H](Cc1ccccc1)NC(=O)CCN1C(=O)CSc2ncccc21)C(=O)N[C@@H](CC1CCCCC1)[C@@H](O)CC(=O)NCCCn1ccnc1 [Example E10, 2,3-Dihydro-3-oxo-4H-pyrido[2,3-b]-1,4-thiazine-4-propanoyl-Phe-Leu-ACHPA 3-(1-imidazolyl)propylamide .HCl]",0.006 µM
